Assay [1] has as its system HEK293 cells expressing APP 695 wt. Kind of assay: Aβ production in HEK293 cells expressing APP 695 wt, compared with I-7T binding to membranes of the same cell line. In kind it is cell-based. An excerpt:
The concentration of Compound (I-7) leading to half-maximal inhibition (IC50) of proteolytic activity leading to Aβ production in HEK293 cells expressing APP 695 wt is similar to the concentration leading to half-maximal inhibition (IC50) of Compound (I-7T) binding to membranes derived from the same cell line. […] Also using a compound of Formula (I), we have discovered a macromolecule containing a binding site of action for compounds of Formula (I) critical to the processing of APP and the production of Aβ.
bind specifically to a binding site on a macromolecule or a complex of macromolecules involved in APP processing to produce reduction of Aβ peptide production. For example, the concentration of Compound (I-7) leading to half-maximal inhibition (IC50) of Aβ production in HEK293 cells expressing APP 695 wt is similar to the concentration leading to half-maximal inhibition (IC50) of Compound (I-7T) binding to membranes derived from the same cell line.

For assay [2], the system named is membrane binding site of Example 7. The assay can be described thus: Radioligand Competition Binding Assay (RCB Assay). A general note: Loss of bound radioactivity is the signal in a displacement assay; it reports binding, not function.
In assay [3] the target is T1, presenilin 1 (Homo sapiens, UniProt P49768).
T1 construct: endogenous in cells; host or cells: THP-1 cell membranes
The assay can be described thus: immunoprecipitation of cross-linked polypeptides with antibodies to presenilin 1. The class given is binding. Particulars: THP-1 membranes, Example 43T 30 nM plus competing compound. The procedure:
The membranes were collected by centrifugation. The membranes were extracted with 50 mM Tris, pH 7.5 containing 100 mM KCl, 2 mM EDTA, 2% CHAPS and 1 complete protease inhibitor tablet per 25 ml buffer (COMPLETE™, Boehringer Mannheim; product number 1697 498)) for 1 hour at 4° C. The detergent soluble fraction was recovered by centrifugation (40,000 g, 30 min, 4° C.). The membrane extract was diluted one half with water. 500 ul of the membrane extract were pre-incubated with 10 ul of normal mouse IgG and 50 ul anti-mouse IgG Sepharose (Sigma) for 1 hour at 4° C. The supernatant was recovered by centrifugation. Subsequently, 10 ug of preimmune IgG (Sigma) or 10 ug of a monoclonal antibody to presenilin 1 was added in the presence of 50 ul anti-mouse IgG Sepharose. Examples of commercially available antibodies to presenilin 1 are Chemicon International: rat anti-human Presenilin 1 monoclonal antibody; product number MAB 1563; or Santa Cruz Biotechnology: goat anti Presenilin 1; product number SC-1244; or Santa Cruz Biotechnology: goat anti Presenilin 1; product number SC-1245. […] Radioactivity bound to the Sepharose beads was dissociated by boiling in SDS sample buffer (4×) containing 50 mM dithiothreitol. […]

With “Tritiated (2S,3R) N1-[1,3-Dihydro-1-methyl-2-oxo-5-(phenyl)-2H-1,4-benzodiazepin-3-yl]-2-(2-methylpropyl)-3-(n-propyl)-butanediamide [Example 43T]”, the “IC50 of Aβ production compared with IC50 of Compound (I-7T) binding to membranes from the same cell line” value in assay [1] is given as “correlation holds”. In addition, the “equivalency to Example 7T as radioactive tracer in the RCB Assay” value in assay [2] is reported as “can be used instead of Example 7T”.
Regarding `CC(NC(=O)Cc1cc(F)cc(F)c1)C(=O)NC1N=C(c2ccccc2)c2ccccc2N(C)C1=O` (stereo not shown) [Example 98, reference compound], the “apparent Ki: RCB Assay conducted with Example 7T versus Example 11T” value in assay [2] is “statistically significant correlation”. Besides, the “competition of cross-linking / immunoprecipitation of labeled bands (FIG. 2)” value in assay [3] is given as “not in the presence of Example 98”.
With `CC(C)C[C@H](CC(N)=O)C(=O)N[C@H]1CCCCN(Cc2cccc(Oc3ccccc3)c2)C1=O` [Example 99], the “apparent Ki: RCB Assay conducted with Example 7T versus Example 11T” value in assay [2] is reported as “statistically significant correlation”.
In the case of `CCC[C@H](C(N)=O)[C@@H](CC(C)C)C(=O)N[C@H]1CCCCN(Cc2cccc(Oc3ccccc3)c2)C1=O` [Example 7, (2R,3S) N1-[(3S)-Hexahydro-1-(3-phenoxybenzyl)-2-oxo-1H-azepin-3-yl]-2-(2-methylpropyl)-3-(propyl)-butanediamide], in assay [1], the “IC50 of Aβ production compared with IC50 of Compound (I-7T) binding to membranes from the same cell line” value is “similar”. In addition, in assay [2], the “apparent Ki: RCB Assay conducted with Example 7T versus Example 11T” value is on record as “statistically significant correlation”.
As to `CCC[C@H](C(N)=O)[C@@H](CC(C)C)C(=O)N[C@H]1CCCCN(Cc2cccc(C(=O)c3ccccc3)c2)C1=O` [Example 11], in assay [2], the “IC50 in β APPA Assay versus RCB Assay with Example 7T as radiolabeled standard” value is “statistically significant correlation of IC50 values” and the “apparent Ki: RCB Assay conducted with Example 7T versus Example 11T” value was “statistically significant correlation”. The “cross-linking to the membrane binding site” value in assay [2] (THP-1 membranes, photolysis at 365 nm) is listed as “cross-linked to the membrane binding site of Example 7”.

The record behind these values is US6737038B1, “Use of small molecule radioligands to discover inhibitors of amyloid-beta peptide production and for diagnostic imaging” (Bristol-Myers Squibb Company, priority 1998, dated 2004).
